“Also recorded” adds a separate entry of the source.
Key:
[1] = molecular target: T1, CBP (1-111) (disordered sequence region) (Homo sapiens, UniProt Q92793); experiment: 2D NMR analysis of 15N-labeled CBP (1-111) with ICG-001; format: binding; settings: 5 μM or 15 μM ICG-001
T1 construct: NMR analysis using CBP (1-111) expressed in E. coli as a sample; made in house; host or cells: E. coli
Procedure: ^15N-labeled CBP (1^-111) (disordered sequence region) was expressed E. coli and dissolved in a buffer (NaP 25 mM·pH 6.8, NaCl 50 mM, 0.02% NaN3), and 300 μl thereof was introduced into an NMR sample tube. Moreover, a D2O solution of ICG-001 was added so as to attain an ICG^-001 concentration of 5 μM or 15 μM. Solutions prepared in this manner as NMR samples were subjected to an NMR analysis. In the NMR analysis, the measurement and analysis was carried out to give a 2D spectrum, with the X axis indicating […] data and the Y axis indicating N-15 data.

[2] = molecular target: T2, CBP (Homo sapiens, UniProt Q92793); settings: SW480 nuclear extract; FIG. 1; cited from earlier work
T2 construct: endogenous in cells; host or cells: SW480 nuclear extract
T2 sequence (Q92793 whole entry): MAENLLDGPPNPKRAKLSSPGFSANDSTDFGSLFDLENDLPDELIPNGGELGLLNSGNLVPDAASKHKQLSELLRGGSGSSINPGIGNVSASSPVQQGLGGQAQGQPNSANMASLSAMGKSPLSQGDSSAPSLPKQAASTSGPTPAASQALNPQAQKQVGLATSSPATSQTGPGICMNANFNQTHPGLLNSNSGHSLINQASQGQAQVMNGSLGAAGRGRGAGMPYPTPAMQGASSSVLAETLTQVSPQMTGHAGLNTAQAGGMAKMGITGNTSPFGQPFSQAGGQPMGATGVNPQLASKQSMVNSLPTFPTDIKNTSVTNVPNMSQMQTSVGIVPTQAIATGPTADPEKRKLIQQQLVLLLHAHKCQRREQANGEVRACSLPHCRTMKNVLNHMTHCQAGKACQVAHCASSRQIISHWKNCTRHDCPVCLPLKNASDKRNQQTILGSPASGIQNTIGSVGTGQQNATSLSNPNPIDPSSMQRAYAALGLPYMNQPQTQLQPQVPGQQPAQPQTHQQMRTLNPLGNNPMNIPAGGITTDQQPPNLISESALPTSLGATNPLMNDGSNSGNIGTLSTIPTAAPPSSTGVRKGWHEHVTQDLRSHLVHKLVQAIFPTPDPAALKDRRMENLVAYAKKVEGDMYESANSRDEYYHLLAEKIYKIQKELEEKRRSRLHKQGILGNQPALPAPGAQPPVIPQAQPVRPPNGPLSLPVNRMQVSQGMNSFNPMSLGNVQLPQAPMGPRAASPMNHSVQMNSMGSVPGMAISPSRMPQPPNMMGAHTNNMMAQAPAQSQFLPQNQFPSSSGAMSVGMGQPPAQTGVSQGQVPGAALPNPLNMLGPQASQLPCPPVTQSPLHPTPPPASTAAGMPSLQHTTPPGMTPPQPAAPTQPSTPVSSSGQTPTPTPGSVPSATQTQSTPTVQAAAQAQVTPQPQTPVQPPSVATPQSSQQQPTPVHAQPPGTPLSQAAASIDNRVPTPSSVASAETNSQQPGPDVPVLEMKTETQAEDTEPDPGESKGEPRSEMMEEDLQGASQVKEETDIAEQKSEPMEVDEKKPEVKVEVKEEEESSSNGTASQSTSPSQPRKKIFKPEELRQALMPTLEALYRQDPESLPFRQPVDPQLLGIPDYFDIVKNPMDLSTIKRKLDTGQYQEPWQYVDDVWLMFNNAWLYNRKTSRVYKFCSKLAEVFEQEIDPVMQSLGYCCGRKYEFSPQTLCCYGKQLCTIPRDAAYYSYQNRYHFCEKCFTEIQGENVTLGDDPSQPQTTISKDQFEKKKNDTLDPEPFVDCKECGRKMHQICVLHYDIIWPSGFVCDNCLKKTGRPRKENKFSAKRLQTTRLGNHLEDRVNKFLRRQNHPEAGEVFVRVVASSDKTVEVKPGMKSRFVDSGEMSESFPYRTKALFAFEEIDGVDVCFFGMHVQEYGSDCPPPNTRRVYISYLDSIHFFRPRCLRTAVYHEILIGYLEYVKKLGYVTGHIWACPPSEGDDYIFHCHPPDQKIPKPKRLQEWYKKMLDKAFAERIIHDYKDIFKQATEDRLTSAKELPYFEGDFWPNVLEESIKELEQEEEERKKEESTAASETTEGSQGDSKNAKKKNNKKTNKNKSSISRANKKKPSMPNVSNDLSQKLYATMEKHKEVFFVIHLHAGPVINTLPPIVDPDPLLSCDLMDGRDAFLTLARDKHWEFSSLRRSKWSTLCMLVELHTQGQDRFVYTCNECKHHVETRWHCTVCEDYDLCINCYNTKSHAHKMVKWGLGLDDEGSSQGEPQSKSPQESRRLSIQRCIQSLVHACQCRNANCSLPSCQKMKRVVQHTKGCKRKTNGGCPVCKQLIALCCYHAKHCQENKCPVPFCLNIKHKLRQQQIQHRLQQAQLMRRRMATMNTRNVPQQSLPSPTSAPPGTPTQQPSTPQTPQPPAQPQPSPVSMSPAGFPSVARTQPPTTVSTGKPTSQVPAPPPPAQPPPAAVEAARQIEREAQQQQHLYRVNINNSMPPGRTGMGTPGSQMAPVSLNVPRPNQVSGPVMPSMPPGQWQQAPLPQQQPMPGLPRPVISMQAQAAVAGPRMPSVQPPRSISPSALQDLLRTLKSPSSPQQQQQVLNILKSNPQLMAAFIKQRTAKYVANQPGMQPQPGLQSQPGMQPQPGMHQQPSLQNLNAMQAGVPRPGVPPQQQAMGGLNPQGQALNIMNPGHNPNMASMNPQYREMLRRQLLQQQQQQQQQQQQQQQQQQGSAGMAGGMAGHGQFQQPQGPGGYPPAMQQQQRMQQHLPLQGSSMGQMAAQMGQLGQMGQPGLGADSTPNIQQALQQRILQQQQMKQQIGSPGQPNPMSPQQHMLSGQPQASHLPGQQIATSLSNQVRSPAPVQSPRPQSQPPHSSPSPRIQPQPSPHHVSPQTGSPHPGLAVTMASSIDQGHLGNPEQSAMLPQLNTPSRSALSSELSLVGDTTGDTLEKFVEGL

[3] = molecular target: T3, CBP (1-111) (disordered sequence region) and β-catenin (Homo sapiens, UniProt Q92793); settings: cited from earlier work
T3 construct: made in house; host or cells: E. coli
T3 sequence (Q92793 1-111): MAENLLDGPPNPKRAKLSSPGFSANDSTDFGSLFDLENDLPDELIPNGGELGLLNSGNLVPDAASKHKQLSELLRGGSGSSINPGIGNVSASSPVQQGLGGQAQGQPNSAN

[4] = molecular target: T4, p300 (1-111) (disordered sequence region) (Homo sapiens, UniProt Q09472); settings: p300 (1-111) expressed in E. coli; cited from earlier work
T4 construct: made in house; host or cells: E. coli
T4 sequence (Q09472 1-111): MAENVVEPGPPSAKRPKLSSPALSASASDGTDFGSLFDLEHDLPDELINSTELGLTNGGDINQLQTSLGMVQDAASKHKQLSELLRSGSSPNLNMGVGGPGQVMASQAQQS

T1 sequence (Q92793 1-111): as the sequence (Q92793 1-111) above

interaction between CBP1-111 and compound (NMR) [1]: clear interaction | change of NMR peak of CBP1-111 on addition of compound ([1]; buffer pH 6.8, FIGS. 5 and 6): change of a peak
SMILES: O=C1[C@H](Cc2ccc(O)cc2)N2C(=O)CCN(C(=O)NCc3ccccc3)[C@H]2CN1Cc1cccc2ccccc12 [ICG-001]
binding to CBP (pull-down) [2]: binds to CBP; also recorded: bound to CBR | separation of CBP (1-111) from β-catenin on addition of compound ([3]; CBP (1-111) and β-catenin expressed in E. coli, pulled down by immunoprecipitation): CBP (1-111) became separated | binding to the N-terminus of CBP ([3]; CBP (1-111), FIG. 2): binds to the N-terminus sequence of CBP; also recorded: bound to the N-terminus of CBP | binding to p300 [4]: does not binds to p300; also recorded: did not bind; also recorded: does not occur

From patent US20120296067A1, “COMPOUND CAPABLE OF BINDING TO NATURALLY OCCURRING DENATURED PROTEIN, AND METHOD FOR SCREENING FOR THE COMPOUND” (Prism BioLab Co., Ltd., priority 2010, published 2012)
